Assay results as given in ChEMBL document CHEMBL2331210, “New 2-benzylsulfanyl-nicotinic acid based 1,3,4-oxadiazoles: their synthesis and biological evaluation” (2013).

Legend:
Assay type in all cases: functional
Settings in all cases: read-out: Activity
UO-31 = test: Antitumor activity against human UO31 cells assessed as cell growth at 0.1 uM
TK-10 = test: Antitumor activity against human TK10 cells assessed as cell growth at 0.1 uM
SN12C = test: Antitumor activity against human SN12C cells assessed as cell growth at 0.1 uM
RXF 393 = test: Antitumor activity against human RXF393 cells assessed as cell growth at 0.1 uM
ACHN = test: Antitumor activity against human ACHN cells assessed as cell growth at 0.1 uM
CAKI-1 = test: Antitumor activity against human CAKI-1 cells assessed as cell growth at 0.1 uM
A498 = test: Antitumor activity against human A498 cells assessed as cell growth at 0.1 uM
SK-OV-3 = test: Antitumor activity against human SKOV3 cells assessed as cell growth at 0.1 uM
NCI/ADR-RES = test: Antitumor activity against human NCI/ADR-RES cells assessed as cell growth at 0.1 uM
OVCAR-8 = test: Antitumor activity against human OVCAR8 cells assessed as cell growth at 0.1 uM
OVCAR-5 = test: Antitumor activity against human OVCAR5 cells assessed as cell growth at 0.1 uM
OVCAR-3 = test: Antitumor activity against human OVCAR3 cells assessed as cell growth at 0.1 uM
OVCAR-4 = test: Antitumor activity against human OVCAR4 cells assessed as cell growth at 0.1 uM
IGROV-1 = test: Antitumor activity against human IGROV1 cells assessed as cell growth at 0.1 uM
UACC-62 = test: Antitumor activity against human UACC62 cells assessed as cell growth at 0.1 uM
UACC-257 = test: Antitumor activity against human UACC257 cells assessed as cell growth at 0.1 uM
SK-MEL-5 = test: Antitumor activity against human SK-MEL-5 cells assessed as cell growth at 0.1 uM
SK-MEL-28 = test: Antitumor activity against human SK-MEL-28 cells assessed as cell growth at 0.1 uM
MDA-MB-435 = test: Antitumor activity against human MDA-MB-435 cells assessed as cell growth at 0.1 uM
M14 = test: Antitumor activity against human M14 cells assessed as cell growth at 0.1 uM
Malme-3M = test: Antitumor activity against human MALME-3M cells assessed as cell growth at 0.1 uM
LOX IMVI = test: Antitumor activity against human LOXIMVI cells assessed as cell growth at 0.1 uM
U-251 = test: Antitumor activity against human U251 cells assessed as cell growth at 0.1 uM
SNB-75 = test: Antitumor activity against human SNB75 cells assessed as cell growth at 0.1 uM
SF-539 = test: Antitumor activity against human SF539 cells assessed as cell growth at 0.1 uM
SNB-19 = test: Antitumor activity against human SNB19 cells assessed as cell growth at 0.1 uM
SF-295 = test: Antitumor activity against human SF295 cells assessed as cell growth at 0.1 uM
SF-268 = test: Antitumor activity against human SF268 cells assessed as cell growth at 0.1 uM
SW-620 = test: Antitumor activity against human SW620 cells assessed as cell growth at 0.1 uM
HCT-15 = test: Antitumor activity against human HCT15 cells assessed as cell growth at 0.1 uM
HT-29 = test: Antitumor activity against human HT-29 cells assessed as cell growth at 0.1 uM
HCT-116 = test: Antitumor activity against human HCT116 cells assessed as cell growth at 0.1 uM

COc1cc(OC)nc(NC(=O)CSc2nnc(-c3cccnc3SCc3ccccc3)o2)n1
growth at 0.1 µM (UO-31): 80.6% | growth at 0.1 µM (TK-10): 98.6% | growth at 0.1 µM (SN12C): 106% | growth at 0.1 µM (RXF 393): 107% | growth at 0.1 µM (ACHN): 107% | growth at 0.1 µM (CAKI-1): 99.5% | growth at 0.1 µM (A498): 125% | growth at 0.1 µM (SK-OV-3): 103% | growth at 0.1 µM (NCI/ADR-RES): 102% | growth at 0.1 µM (OVCAR-8): 105% | growth at 0.1 µM (OVCAR-5): 101% | growth at 0.1 µM (OVCAR-3): 102% | growth at 0.1 µM (OVCAR-4): 100% | growth at 0.1 µM (IGROV-1): 114% | growth at 0.1 µM (UACC-62): 107% | growth at 0.1 µM (UACC-257): 105% | growth at 0.1 µM (SK-MEL-5): 105% | growth at 0.1 µM (SK-MEL-28): 114% | growth at 0.1 µM (MDA-MB-435): 105% | growth at 0.1 µM (M14): 96.7% | growth at 0.1 µM (Malme-3M): 98.2% | growth at 0.1 µM (LOX IMVI): 97.6% | growth at 0.1 µM (U-251): 106% | growth at 0.1 µM (SNB-75): 92.5% | growth at 0.1 µM (SF-539): 94.5% | growth at 0.1 µM (SNB-19): 107% | growth at 0.1 µM (SF-295): 97.1% | growth at 0.1 µM (SF-268): 104% | growth at 0.1 µM (SW-620): 107% | growth at 0.1 µM (HCT-15): 105% | growth at 0.1 µM (HT-29): 100% | growth at 0.1 µM (HCT-116): 101%
